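Values below derive from 48-hour exposures of cells grown in 96-well plates, with endpoints linearly interpolated between the two concentrations bracketing the appropriate inhibition level. Here, GI50 denotes the concentration required for 50% inhibition of growth. TGI: concentration producing complete growth inhibition.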
How the values were obtained:
Experiment in all cases: NCI anticancer screen, dose series, 48 h
K-562 leukemia = test system: K-562 leukemia
MOLT-4 leukemia = test system: MOLT-4 leukemia
KM20L2 colon = test system: KM20L2 colon
KM12 colon = test system: KM12 colon
UACC-257 melanoma = test system: UACC-257 melanoma
SN12C renal = test system: SN12C renal
OVCAR-5 ovarian = test system: OVCAR-5 ovarian
LXFL 529 NSCLC = test system: LXFL 529 NSCLC
OVCAR-8 ovarian = test system: OVCAR-8 ovarian
PC-3 prostate = test system: PC-3 prostate

NC(=O)c1ncn(C2OC(CO)C(O)C2O)c1NC(=S)NC(=O)c1ccccc1 (configuration not stated)
TGI (K-562 leukemia): > 100 µM
TGI (MOLT-4 leukemia): > 100 µM
TGI (KM20L2 colon): > 100 µM
TGI (KM12 colon): > 100 µM
TGI (UACC-257 melanoma): > 100 µM
TGI (SN12C renal): > 100 µM
TGI (OVCAR-5 ovarian): > 100 µM
TGI (LXFL 529 NSCLC): > 100 µM
TGI (OVCAR-8 ovarian): > 100 µM

CC(=O)[O-].O=[N+]([O-])c1ccc([O-])c(C=NCCN=Cc2cc([N+](=O)[O-])ccc2[O-])c1.[Mn+3]
GI50 (K-562 leukemia): > 100 µM
TGI (K-562 leukemia): > 100 µM
GI50 (MOLT-4 leukemia): > 100 µM
TGI (MOLT-4 leukemia): > 100 µM
GI50 (KM12 colon): > 100 µM
TGI (KM12 colon): > 100 µM
GI50 (UACC-257 melanoma): > 100 µM
TGI (UACC-257 melanoma): > 100 µM
GI50 (SN12C renal): > 100 µM
TGI (SN12C renal): > 100 µM
GI50 (LXFL 529 NSCLC): > 100 µM
TGI (LXFL 529 NSCLC): > 100 µM
GI50 (OVCAR-8 ovarian): > 100 µM
TGI (OVCAR-8 ovarian): > 100 µM

C1=CC=C2NCCSCCNC3=CC=CC=CC3=NCCSCCN=C2C=C1
TGI (K-562 leukemia): > 100 µM
TGI (MOLT-4 leukemia): > 100 µM
TGI (KM20L2 colon): > 100 µM
TGI (KM12 colon): > 100 µM
TGI (UACC-257 melanoma): > 100 µM
TGI (SN12C renal): > 100 µM
TGI (OVCAR-5 ovarian): > 100 µM
TGI (LXFL 529 NSCLC): > 100 µM
TGI (OVCAR-8 ovarian): > 100 µM

O=C1[C@H]2ON(c3ccccc3)C(c3cccc([N+](=O)[O-])c3)[C@H]2C(=O)N1c1ccc(Cc2ccc(N3C(=O)[C@@H]4ON(c5ccccc5)C(c5cccc([N+](=O)[O-])c5)[C@@H]4C3=O)cc2)cc1 (some centres not stated)
TGI (K-562 leukemia): > 100 µM
TGI (MOLT-4 leukemia): > 100 µM
TGI (KM20L2 colon): > 100 µM
TGI (KM12 colon): > 100 µM
TGI (UACC-257 melanoma): > 100 µM
TGI (SN12C renal): > 100 µM
TGI (OVCAR-5 ovarian): > 100 µM
TGI (LXFL 529 NSCLC): > 100 µM
TGI (OVCAR-8 ovarian): > 100 µM

CCCCOP1(=O)C=CC(Cl)=C(C)C1 (configuration not stated)
TGI (K-562 leukemia): 50 µM
TGI (MOLT-4 leukemia): 25.3 µM
TGI (KM20L2 colon): 49.5 µM
TGI (KM12 colon): 46.6 µM
TGI (SN12C renal): 49.8 µM
TGI (LXFL 529 NSCLC): 94.4 µM
TGI (OVCAR-8 ovarian): 51.3 µM

CC(C)(C)c1cc(C(=O)O)c(C(c2ccccc2)c2ccccc2C(=O)O)c(C(=O)O)c1 (configuration not stated)
TGI (K-562 leukemia): > 100 µM
TGI (MOLT-4 leukemia): > 100 µM
TGI (KM20L2 colon): > 100 µM
TGI (KM12 colon): > 100 µM
TGI (UACC-257 melanoma): > 100 µM
TGI (SN12C renal): 49.1 µM
TGI (OVCAR-5 ovarian): > 100 µM
TGI (LXFL 529 NSCLC): > 100 µM
TGI (OVCAR-8 ovarian): > 100 µM

C=C1c2ccccc2N(S(=O)(=O)c2ccc(C)cc2)C12CCCCC2
TGI (K-562 leukemia): > 100 µM
TGI (MOLT-4 leukemia): > 100 µM
TGI (KM20L2 colon): > 100 µM
TGI (KM12 colon): > 100 µM
TGI (UACC-257 melanoma): > 100 µM
TGI (SN12C renal): > 100 µM
TGI (OVCAR-5 ovarian): > 100 µM
TGI (LXFL 529 NSCLC): > 100 µM
TGI (OVCAR-8 ovarian): > 100 µM

CN1C=C(C(N)=O)C2CC(O)[C@@](NC(=O)CS(N)(=O)=O)(C(=O)O)C2C1 (some centres not stated)
TGI (K-562 leukemia): > 100 µM
TGI (MOLT-4 leukemia): 31.6 µM
TGI (KM20L2 colon): > 40.9 µM
TGI (KM12 colon): 49.8 µM
TGI (UACC-257 melanoma): 27 µM
TGI (SN12C renal): > 75.1 µM
TGI (OVCAR-5 ovarian): 6.8 µM
TGI (OVCAR-8 ovarian): 18.2 µM

O=C1OC(c2ccc(Cl)c3ccccc23)c2ccccc21 (configuration not stated)
TGI (K-562 leukemia): > 100 µM
TGI (MOLT-4 leukemia): > 100 µM
TGI (KM20L2 colon): > 100 µM
TGI (KM12 colon): > 100 µM
TGI (UACC-257 melanoma): > 100 µM
TGI (SN12C renal): > 100 µM
TGI (OVCAR-5 ovarian): > 100 µM
TGI (OVCAR-8 ovarian): > 100 µM

BrC(Br)([P+](c1ccccc1)(c1ccccc1)c1ccccc1)[P+](c1ccccc1)(c1ccccc1)c1ccccc1
TGI (MOLT-4 leukemia): 61.8 µM
TGI (KM20L2 colon): 86.2 µM
TGI (UACC-257 melanoma): 50.5 µM
TGI (SN12C renal): 61.3 µM
TGI (OVCAR-5 ovarian): 81.3 µM
TGI (LXFL 529 NSCLC): 34.5 µM
TGI (OVCAR-8 ovarian): 26.4 µM

CCCC/C=C1\CCC(CN2CCCC2)C1=O (configuration not stated)
TGI (K-562 leukemia): 11.1 µM
TGI (MOLT-4 leukemia): 36.2 µM
TGI (KM20L2 colon): 28.7 µM
TGI (KM12 colon): 8.28 µM
TGI (UACC-257 melanoma): 32.8 µM
TGI (SN12C renal): 32 µM
TGI (OVCAR-5 ovarian): 33.4 µM
TGI (LXFL 529 NSCLC): 3.21 µM
TGI (OVCAR-8 ovarian): 28.5 µM

O=c1ncccn1C1OC(CO)C(O)C1F (configuration not stated)
GI50 (K-562 leukemia): > 100 µM
TGI (K-562 leukemia): > 100 µM
TGI (MOLT-4 leukemia): > 100 µM
TGI (KM20L2 colon): > 100 µM
GI50 (KM12 colon): > 100 µM
TGI (KM12 colon): > 100 µM
TGI (UACC-257 melanoma): > 100 µM
TGI (SN12C renal): > 100 µM
TGI (OVCAR-5 ovarian): > 100 µM
TGI (LXFL 529 NSCLC): > 100 µM
TGI (OVCAR-8 ovarian): > 100 µM

CC1(C)Oc2ccccc2N2O[C@@H]3C(=O)N(c4ccccc4)C(=O)[C@@H]3C21c1ccccc1 (some centres not stated)
TGI (K-562 leukemia): > 100 µM
TGI (MOLT-4 leukemia): > 100 µM
TGI (KM20L2 colon): > 100 µM
TGI (KM12 colon): > 100 µM
TGI (UACC-257 melanoma): 78.7 µM
TGI (OVCAR-5 ovarian): > 100 µM
TGI (LXFL 529 NSCLC): > 100 µM

Cc1cc2c(-c3nc4ccccn4c3NC34CC5CC(CC(C5)C3)C4)c(O)c(O)cc2c(O)c1-c1c(C)cc2c(-c3nc4ccccn4c3NC34CC5CC(CC(C5)C3)C4)c(O)c(O)cc2c1O
GI50 (K-562 leukemia): 0.152 µM
TGI (K-562 leukemia): 4.93 µM
GI50 (MOLT-4 leukemia): 0.11 µM
TGI (MOLT-4 leukemia): 10.4 µM
GI50 (KM12 colon): 0.11 µM
TGI (KM12 colon): 11.7 µM
GI50 (UACC-257 melanoma): 1 µM
TGI (UACC-257 melanoma): > 25 µM
GI50 (SN12C renal): 0.716 µM
TGI (SN12C renal): > 25 µM
GI50 (OVCAR-5 ovarian): 0.922 µM
TGI (OVCAR-5 ovarian): > 25 µM
GI50 (PC-3 prostate): 0.231 µM
TGI (PC-3 prostate): 11.9 µM
GI50 (OVCAR-8 ovarian): 0.871 µM
TGI (OVCAR-8 ovarian): > 25 µM

NC1(C(=O)O)CSSC1
GI50 (K-562 leukemia): 3.7 µM
TGI (K-562 leukemia): > 100 µM
GI50 (MOLT-4 leukemia): 5.61 µM
TGI (MOLT-4 leukemia): > 100 µM
GI50 (KM12 colon): 11.9 µM
TGI (KM12 colon): 80.9 µM
GI50 (UACC-257 melanoma): 3.85 µM
TGI (UACC-257 melanoma): 22.7 µM
GI50 (SN12C renal): 3 µM
TGI (SN12C renal): 12.3 µM
GI50 (OVCAR-5 ovarian): 33.2 µM
TGI (OVCAR-5 ovarian): 90.1 µM
GI50 (PC-3 prostate): 21.5 µM
TGI (PC-3 prostate): > 100 µM
GI50 (OVCAR-8 ovarian): 3.6 µM
TGI (OVCAR-8 ovarian): 24.4 µM

COc1ccc(-c2nn3ncccc3c2-c2ccnc(Nc3cccc(C(F)(F)F)c3)n2)cc1
GI50 (K-562 leukemia): 8.04 µM
TGI (K-562 leukemia): > 25 µM
GI50 (MOLT-4 leukemia): 8.8 µM
TGI (MOLT-4 leukemia): > 25 µM
GI50 (KM12 colon): 9.33 µM
TGI (KM12 colon): > 25 µM
GI50 (UACC-257 melanoma): 9.34 µM
TGI (UACC-257 melanoma): > 25 µM
GI50 (SN12C renal): 8.03 µM
TGI (SN12C renal): > 25 µM
GI50 (OVCAR-5 ovarian): 6.7 µM
TGI (OVCAR-5 ovarian): > 25 µM
GI50 (PC-3 prostate): 7.25 µM
TGI (PC-3 prostate): > 25 µM
GI50 (OVCAR-8 ovarian): 8.74 µM
TGI (OVCAR-8 ovarian): > 25 µM

Cc1nnc(N=Nc2c(O)[nH]c3ccccc23)[nH]c1=O
TGI (K-562 leukemia): > 100 µM
TGI (MOLT-4 leukemia): > 100 µM
TGI (KM12 colon): > 100 µM
TGI (UACC-257 melanoma): > 100 µM
TGI (SN12C renal): > 100 µM
TGI (OVCAR-5 ovarian): > 100 µM
TGI (PC-3 prostate): > 100 µM
TGI (OVCAR-8 ovarian): > 100 µM

Cc1cc([C@H](C)Nc2nccc(N3C(=O)OC[C@@H]3[C@H](C)F)n2)ncc1-c1ccnc(C(F)(F)F)c1
GI50 (K-562 leukemia): 37.1 µM
TGI (K-562 leukemia): > 100 µM
GI50 (MOLT-4 leukemia): 34.6 µM
TGI (MOLT-4 leukemia): > 100 µM
GI50 (KM12 colon): 33.8 µM
TGI (KM12 colon): > 100 µM
GI50 (UACC-257 melanoma): 30.5 µM
TGI (UACC-257 melanoma): > 100 µM
GI50 (SN12C renal): 44.5 µM
TGI (SN12C renal): > 100 µM
GI50 (OVCAR-5 ovarian): > 100 µM
TGI (OVCAR-5 ovarian): > 100 µM
GI50 (PC-3 prostate): 31.3 µM
TGI (PC-3 prostate): > 100 µM
GI50 (OVCAR-8 ovarian): 33.5 µM
TGI (OVCAR-8 ovarian): > 100 µM

O=C(O)C(O)c1ccc(F)cc1 (configuration not stated)
TGI (K-562 leukemia): > 100 µM
TGI (MOLT-4 leukemia): > 100 µM
TGI (KM12 colon): > 100 µM
TGI (UACC-257 melanoma): > 100 µM
TGI (SN12C renal): > 100 µM
TGI (OVCAR-5 ovarian): > 100 µM
TGI (PC-3 prostate): > 100 µM
TGI (OVCAR-8 ovarian): > 100 µM

CN1CCN(CCCOc2ccc3ncnc(Nc4ccc(Oc5cccc(F)c5)c(Cl)c4)c3c2)CC1
GI50 (K-562 leukemia): 1.19 µM
TGI (K-562 leukemia): 4.34 µM
GI50 (MOLT-4 leukemia): 1.76 µM
TGI (MOLT-4 leukemia): 4.35 µM
GI50 (KM12 colon): 1.81 µM
TGI (KM12 colon): 3.39 µM
GI50 (UACC-257 melanoma): 1.96 µM
TGI (UACC-257 melanoma): 4.06 µM
GI50 (SN12C renal): 1.39 µM
TGI (SN12C renal): 2.74 µM
GI50 (OVCAR-5 ovarian): 1.67 µM
TGI (OVCAR-5 ovarian): 3.29 µM
GI50 (PC-3 prostate): 1.68 µM
TGI (PC-3 prostate): 3.45 µM
GI50 (OVCAR-8 ovarian): 2.19 µM
TGI (OVCAR-8 ovarian): 6.42 µM

Reference: PubChem BioAssay (NCI)
